The structures appear in SMILES notation.

T1 sequence (P32245 whole entry): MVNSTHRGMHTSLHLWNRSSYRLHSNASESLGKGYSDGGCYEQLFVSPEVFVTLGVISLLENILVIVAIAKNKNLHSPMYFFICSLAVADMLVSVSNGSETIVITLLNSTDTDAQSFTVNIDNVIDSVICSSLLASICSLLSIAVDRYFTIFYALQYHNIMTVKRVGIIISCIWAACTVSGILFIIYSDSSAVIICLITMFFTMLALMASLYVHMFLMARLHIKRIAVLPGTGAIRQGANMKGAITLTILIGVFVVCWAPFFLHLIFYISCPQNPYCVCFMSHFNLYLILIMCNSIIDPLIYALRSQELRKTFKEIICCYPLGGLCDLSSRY

One assay has as its target T1, MC4 (Homo sapiens, UniProt P32245).
T1 construct: purchased Perkin Elmer BioSignal; host or cells: HEK 293
In words: GPCR radioligand binding (RLB) assay, melanocortin MC4, [125I]NDP-αMSH. The note with it: 1.0 micromolar compound. The method in brief:
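Competition binding against radioligand ([125I]NDP-αMSH for MC4, [125I]SST-14 for SST5) on membranes of HEK 293 cells carrying the human receptor; buffer and incubation time optimized per receptor. Filtration through 0.5% PEI-treated glass fiber, washing, then scintillation counting.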
`CC(=O)N[C@H]1C(NC(=O)CCN)O[C@H](CO)[C@@H](O)[C@@H]1OCc1ccccc1` (stereo partly drawn) [Compound 498]: the “MC4 Inhibition at 1.0 Micromolar” value was “+ (Indicates inhibition greater than . . . 50%)”.
On to `CC(=O)N[C@H]1C(NC(=O)CCN)O[C@H](CO)[C@@H](O)[C@@H]1OCc1ccc(C)cc1` (stereo partly drawn) [Compound 499], for which the “MC4 Inhibition at 1.0 Micromolar” value is given as “+ (Indicates inhibition greater than . . . 50%)”.
Regarding `CC(=O)N[C@H]1C(NC(=O)CCN)O[C@H](CO)[C@@H](O)[C@@H]1OCc1cccc2ccccc12` (stereo partly drawn) [Compound 500], the “MC4 Inhibition at 1.0 Micromolar” value is on record as “+ (Indicates inhibition greater than . . . 50%)”.
For `CC(=O)N[C@H]1C(NC(=O)CCN)O[C@H](CO)[C@@H](O)[C@@H]1OCc1ccc(-c2ccccc2)cc1` (stereo partly drawn) [Compound 501], the “MC4 Inhibition at 1.0 Micromolar” value is given as “+ (Indicates inhibition greater than . . . 50%)”.
For the molecule `NCCC(=O)NC1O[C@H](CO)[C@@H](O)[C@H](OCc2ccccc2)[C@H]1NC(=O)c1ccccc1` (stereo partly drawn) [Compound 502], the “MC4 Inhibition at 1.0 Micromolar” value is “+ (Indicates inhibition greater than . . . 50%)”.
For the molecule `NCCC(=O)NC1O[C@H](CO)[C@@H](O)[C@H](OCc2ccc(Cl)cc2)[C@H]1NC(=O)c1ccccc1` (stereo partly drawn) [Compound 503], the “MC4 Inhibition at 1.0 Micromolar” value is reported as “+ (Indicates inhibition greater than . . . 50%)”.
As to `Cc1ccc(CO[C@H]2[C@H](O)[C@@H](CO)OC(NC(=O)CCN)[C@@H]2NC(=O)c2ccccc2)cc1` (stereo partly drawn) [Compound 504], the “MC4 Inhibition at 1.0 Micromolar” value is listed as “+ (Indicates inhibition greater than . . . 50%)”.
Take `NCCC(=O)NC1O[C@H](CO)[C@@H](O)[C@H](OCc2cccc3ccccc23)[C@H]1NC(=O)c1ccccc1` (stereo partly drawn) [Compound 505]: the “MC4 Inhibition at 1.0 Micromolar” value was “+ (Indicates inhibition greater than . . . 50%)”.
In the case of `NCC(=O)NC1O[C@H](CO)[C@@H](O)[C@H](OCc2ccccc2)[C@H]1NC(=O)c1ccccc1` (stereo partly drawn) [Compound 506], the “MC4 Inhibition at 1.0 Micromolar” value is recorded as “+ (Indicates inhibition greater than . . . 50%)”.
In the case of `NCC(=O)NC1O[C@H](CO)[C@@H](O)[C@H](OCc2ccc(Cl)cc2)[C@H]1NC(=O)c1ccccc1` (stereo partly drawn) [Compound 507], the “MC4 Inhibition at 1.0 Micromolar” value is recorded as “+ (Indicates inhibition greater than . . . 50%)”.

The assay is the same for the next values; noted with them: 4.0 Micromolar; Example Library 13.
Take `N=C(N)NCCC(=O)NC1C(OCc2ccc(Cl)cc2)OC(COCc2ccc3ccccc3c2)C(O)C1OCc1ccc(-c2ccccc2)cc1` (stereo not drawn) [Compound 494]: the “MC4 Inhibition at 4.0 Micromolar” value is recorded as “+ (Indicates inhibition greater than . . . 50%)”.
As for `N=C(N)NCCC(=O)NC1C(OCc2ccc(Cl)cc2)OC(COCc2ccccc2)C(O)C1OCc1ccc(-c2ccccc2)cc1` (stereo not drawn) [Compound 495], the “MC4 Inhibition at 4.0 Micromolar” value is “+ (Indicates inhibition greater than . . . 50%)”.
On to `N=C(N)NCCC(=O)NC1C(OCc2ccc(Cl)cc2)OC(COCc2ccc(Cl)cc2)C(O)C1OCc1ccc(-c2ccccc2)cc1` (stereo not drawn) [Compound 496], for which the “MC4 Inhibition at 4.0 Micromolar” value is reported as “+ (Indicates inhibition greater than . . . 50%)”.
`N=C(N)NCCCC(=O)NC1C(OCc2ccc(-c3ccccc3)cc2)OC(COCc2ccccc2)C(O)C1OCc1ccccc1` (stereo not drawn) [Compound 497]: the “MC4 Inhibition at 4.0 Micromolar” value is reported as “+ (Indicates inhibition greater than . . . 50%)”.

Another assay deals with T2, SST5 (Homo sapiens, UniProt P35346).
T2 construct: purchased Perkin Elmer BioSignal; host or cells: HEK 293
T2 sequence (P35346 whole entry): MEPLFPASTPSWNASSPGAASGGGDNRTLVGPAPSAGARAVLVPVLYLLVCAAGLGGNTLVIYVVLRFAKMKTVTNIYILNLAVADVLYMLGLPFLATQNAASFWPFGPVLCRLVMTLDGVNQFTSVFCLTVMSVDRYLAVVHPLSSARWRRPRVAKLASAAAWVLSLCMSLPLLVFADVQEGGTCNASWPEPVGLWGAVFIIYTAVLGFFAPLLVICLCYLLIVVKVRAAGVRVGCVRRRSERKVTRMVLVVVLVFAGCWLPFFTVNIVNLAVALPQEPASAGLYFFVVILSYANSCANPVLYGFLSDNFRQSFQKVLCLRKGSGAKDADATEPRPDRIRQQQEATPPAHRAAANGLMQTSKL
Description: GPCR radioligand binding (RLB) assay, somatostatin SST5, [125I]SST-14. The note with it: 10 micromolar compound; recombinant human receptor membranes (HEK 293). The method, then:
Recombinant human receptors expressed in HEK 293 cells were used for all experiments. Receptor membrane preparations were purchased from Perkin Elmer BioSignal. The labelled ligand used in somatostatin GPCR RLB assays was [^125I]SST-14 and in melanocortin assays was [^125I]NDP-αMSH. All assays were done in a 96-well plate format using either glass fiber filter mats or filter plates. All reagents purchased were of the highest quality.
Specific assay buffer, incubation and washing conditions were optimized for each receptor however they all followed the same general format. The procedures for both filter mat and filter plate formats are based on the receptor manufacturers recommendations or those described extensively in the literature. The procedures are briefly outlined below.
In assays where filter mats are used we incubate receptor membranes, assay buffer and [^125I] labelled ligand in 96 well microplates. Add compounds to incubation mixture and continue incubation for optimized period. Presoak Filter mat GF/B in 0.5% PEI for ˜2 hr at 4° C. On completion of assay mixture incubation add additional 100 μL/well of assay buffer immediately prior to filtration. Filter the assay mixture onto the GF/B filter mat using a cell harvester. Dry the filter mats prior to sealing them into a scintillation counting bag with scintillant. Radioactivity in each well is detected by liquid scintillation counting.
In assays where filter plates are used Multiscreen glass fiber filter plates (Millipore, Cat No MAFCNOB10) are precoated with 0.5% PEI for ˜2 hr at 4° C. All wells are then washed with 200 µl/well assay buffer and filtered using the Multiscreen Separation System. Subsequently receptor membranes, assay buffer and labelled ligands are added to the wells and equilibrated. Compounds for testing are then added to the mixture and incubation is continued for an optimized time. Plates are then put into the Multiscreen Separation System and the assay mixture is filtered through the plate under vacuum. Each well is then washed several times with assay buffer. Plates are then dried prior to putting sealing tape onto the bottom of the plate. Scintillant is added to each well and radioactivity measured by liquid scintillation counting.
Raw data was analysed according to standard methods using either GraphPad Prism software or IDDBS ActivityBase software.
On to `COC[C@H]1OC(OCc2ccc(-c3ccccc3)cc2)[C@H](NC(=O)CCNC(=N)N)[C@@H](OCc2ccc3ccccc3c2)[C@@H]1O` (stereo partly drawn) [Compound 2], for which the “SST5 inhibition at 10 micromolar” value is given as “+ (Indicates inhibition greater than . . . 50%)”.
With `COC[C@H]1OC(OCc2ccc(-c3ccccc3)cc2)[C@H](NC(=O)CCCN)[C@@H](OCc2ccccc2)[C@@H]1O` (stereo partly drawn) [Compound 3], the “SST5 inhibition at 10 micromolar” value was “+ (Indicates inhibition greater than . . . 50%)”.
As to `COC[C@H]1OC(OCc2ccc3ccccc3c2)[C@H](NC(=O)CCCN)[C@@H](OCc2ccccc2)[C@@H]1O` (stereo partly drawn) [Compound 4], the “SST5 inhibition at 10 micromolar” value was “+ (Indicates inhibition greater than . . . 50%)”.
For the molecule `COC[C@H]1OC(OCc2ccccc2)[C@H](NC(=O)CCCN)[C@@H](OCc2ccc(-c3ccccc3)cc2)[C@@H]1O` (stereo partly drawn) [Compound 7], the “SST5 inhibition at 10 micromolar” value is listed as “+ (Indicates inhibition greater than . . . 50%)”.
Regarding `COC[C@H]1OC(OCc2ccccc2)[C@H](NC(=O)CCCNC(=N)N)[C@@H](OCc2ccc(-c3ccccc3)cc2)[C@@H]1O` (stereo partly drawn) [Compound 8], the “SST5 inhibition at 10 micromolar” value is reported as “+ (Indicates inhibition greater than . . . 50%)”.
Still for that read-out and setting: the result for `COC[C@H]1OC(OCc2ccccc2)[C@H](NC(=O)CCCN)[C@@H](OCc2ccccc2)[C@@H]1O` (stereo partly drawn) [Compound 9] reads “+ (Indicates inhibition greater than . . . 50%)”.
As to `COC[C@H]1OC(OCc2ccccc2)[C@H](NC(=O)CCNC(=N)N)[C@@H](OCc2ccc(Cl)cc2)[C@@H]1O` (stereo partly drawn) [Compound 10], the “SST5 inhibition at 10 micromolar” value was “+ (Indicates inhibition greater than . . . 50%)”.
Regarding `COC[C@H]1OC(OCc2ccccc2)[C@H](NC(=O)CCCN)[C@@H](OCc2ccc(Cl)cc2)[C@@H]1O` (stereo partly drawn) [Compound 11], the “SST5 inhibition at 10 micromolar” value is “+ (Indicates inhibition greater than . . . 50%)”.
Consider `COC[C@H]1OC(OCc2ccccc2)[C@H](NC(=O)CCCNC(=N)N)[C@@H](OCc2ccc(Cl)cc2)[C@@H]1O` (stereo partly drawn) [Compound 12], for which the “SST5 inhibition at 10 micromolar” value is “+ (Indicates inhibition greater than . . . 50%)”.
Turning to `COC[C@H]1OC(OCc2ccc(Cl)cc2)[C@H](NC(=O)CCCN)[C@@H](OCc2ccccc2)[C@@H]1O` (stereo partly drawn) [Compound 16], the “SST5 inhibition at 10 micromolar” value was “+ (Indicates inhibition greater than . . . 50%)”.
Turning to `COC[C@H]1OC(OCc2ccc(Cl)cc2)[C@H](NC(=O)CCNC(=N)N)[C@@H](OCc2ccc(Cl)cc2)[C@@H]1O` (stereo partly drawn) [Compound 17], the “SST5 inhibition at 10 micromolar” value is listed as “+ (Indicates inhibition greater than . . . 50%)”.
For `COC[C@H]1OC(OCc2ccc(Cl)cc2)[C@H](NC(=O)CCCNC(=N)N)[C@@H](OCc2ccc(Cl)cc2)[C@@H]1O` (stereo partly drawn) [Compound 18], the “SST5 inhibition at 10 micromolar” value was “+ (Indicates inhibition greater than . . . 50%)”.
As for `COC[C@H]1OC(OCc2cccc(O)c2)[C@H](NC(=O)CCNC(=N)N)[C@@H](OCc2ccc(-c3ccccc3)cc2)[C@@H]1O` (stereo partly drawn) [Compound 21], the “SST5 inhibition at 10 micromolar” value is recorded as “+ (Indicates inhibition greater than . . . 50%)”.
As to `COC[C@H]1OC(OCc2ccc(-c3ccccc3)cc2)[C@H](NC(=O)CCCN)[C@@H](OCc2cccc(O)c2)[C@@H]1O` (stereo partly drawn) [Compound 22], the “SST5 inhibition at 10 micromolar” value is “+ (Indicates inhibition greater than . . . 50%)”.
In the case of `COC[C@H]1OC(OCc2ccc3ccccc3c2)[C@H](NC(=O)CCCN)[C@@H](OCc2cccc(O)c2)[C@@H]1O` (stereo partly drawn) [Compound 23], the “SST5 inhibition at 10 micromolar” value was “+ (Indicates inhibition greater than . . . 50%)”.
Same read-out and setting: the result for `COC[C@H]1OC(OCc2ccc3ccccc3c2)[C@H](NC(=O)CCCNC(=N)N)[C@@H](OCc2cccc(O)c2)[C@@H]1O` (stereo partly drawn) [Compound 24] reads “+ (Indicates inhibition greater than . . . 50%)”; that for `COC[C@H]1OC(OCc2ccccc2)[C@H](NC(=O)CCCN)[C@@H](OCc2cccc(O)c2)[C@@H]1O` (stereo partly drawn) [Compound 25], “+ (Indicates inhibition greater than . . . 50%)”.
Consider `COC[C@H]1OC(OCc2ccc(Cl)cc2)[C@H](NC(=O)CCCN)[C@@H](OCc2cccc(O)c2)[C@@H]1O` (stereo partly drawn) [Compound 26], for which the “SST5 inhibition at 10 micromolar” value is “+ (Indicates inhibition greater than . . . 50%)”.
The same measure, in the same setting: in the case of `COC[C@H]1OC(OCCc2ccccc2)[C@H](NC(=O)CCCN)[C@@H](OCc2cccc(O)c2)[C@@H]1O` (stereo partly drawn) [Compound 27] it was “+ (Indicates inhibition greater than . . . 50%)”.

For the origin of these results see US7994140B2, “Classes of compounds that interact with GPCRs” (Alchemia Limited, priority 2002, dated 2011).
